Laboratory results published in patent US20190300927A1, “METABOLIC ASSAY FOR BACTERIAL GROWTH AND GRAM TYPING” (SELUX DIAGNOSTICS, INC., priority 2018, published 2019).

How the values were obtained:
gram-positive organisms = settings: Fung and Miller 1973; cited from earlier work
gram-negative organisms = settings: Fung and Miller 1973; cited from earlier work
[1] = system: clinical isolates of Pseudomonas aeruginosa; experiment: Resorufin fluorescence after 4 hour incubation with P. aeruginosa clinical isolates (FIG. 3); format: cell-based; settings: resorufin alone 100 μM, no methylene blue, Mueller-Hinton broth, Ex560/Em590
Procedure: FIG. 3 Experiment: Four clinical isolates of P aeruginosa were inoculated into MHB at a 1:200 dilution from a 0.5 McFarland standard. Resorufin was added to each well at a 100 μM final concentration. Plates were incubated shaking for 4 hours at 37° C. Fluorescence was read at Ex560/Em590. Uninoculated MIHB with resorufin was included as a negative control.

SMILES | effect of high concentrations on gram-positive organisms (gram-positive organisms) | effect of high concentrations on gram-negative organisms (gram-negative organisms) | remaining resorufin fluorescence after P. aeruginosa growth [1]
CN(C)c1ccc2nc3ccc(=[N+](C)C)cc-3sc2c1 [methylene blue, Methylene blue] | inhibitory | tolerated | 
O=c1ccc2nc3ccc(O)cc3oc-2c1 [resorufin] |  |  | does not eliminate the resorufin fluorescence
